Test results as given in patent US20140004201A1, “Treatment of Vascular Diseases Using Encapsulated Cells Encoding and Secreting GLP-1, or a Fragment or Variant Thereof” (Biocompatibles UK Ltd., priority 2010, published 2014).
Where no end group is shown, it is not given here.

What was measured:
[1] = In vitro human plasma stability of GLP-1 CM peptides; format: in vitro ADME; settings: 20 ng/ml, 37° C., 3 hours
Description: Synthetic GLP-1 peptides (SEQ ID NO: 1syn, SEQ ID NO: 6syn, SEQ ID NO: 7rec, SEQ ID NO: 8syn) were incubated at concentrations of 20 ng/ml with human plasma at 37° C. and 5% CO2, for 3 hours. Dipeptidylpeptidase activity of the plasma was inhibited by a DPP-IV inhibitor (#DPP4, Biotrend).

Rin-5F cells = test: Anti-apoptotic efficacy, cycloheximid induced apoptosis; format: cell-based, rat; settings: 24 hours
Description: 40.000 Rin-5F cells were seeded per 96 well and cultivated for 2 days in RPMI supplemented with 1% L-Glutamin and 10% fetal calf serum. […] After 24 hours cell viability is quantified using AlamarBlue.

Row | Molecule | stability in human plasma in vitro (active GLP) [1] | anti-apoptotic effect (Rin-5F cells; 1 nM CM1, cycloheximid, serum free, AlamarBlue) | cell viability (Rin-5F cells; CHX 10 μg/ml and 100 μg/ml, different concentrations of CM1)
1 | HAEGTFTSDVSSYLEGQAAKEFIAWLVKGRGRRDFPEEVAIAEELG [SEQ ID NO:8, GLP-1(7-37)-IP2] | significantly stabilized | – | –
2 | GLP-1(7-37)-IP2-GLP-1(7-37) [CM1] | – | significant anti-apoptotic effect | significant (p<0.01) increase of cell viability
3 | GLP-1(7-37)-IP2-RR-GLP2 (protein, Description of sequence SEQ ID No 7 (ID7rec, CM2) corresponds to GLP-1(7-37)-IP2-RR-GLP2, 83 aa, 9.4 kD) HAEGTFTSDVSSYLEGQAAKEFIAWLVKGRGRRDFPEEVAIAEELGRRHADGSFSDEMSTILDNLATRDFINWLIQTKITDKK | significantly stabilized | – | –
